Measurements from patent US10858362B2, “Imidazopyrazinones as PDE1 inhibitors” (H. Lundbeck A/S, priority 2015, dated 2020).

What was measured:
Type in all cases: biochemical
[1] = biological target: PDE1A (Homo sapiens (Human), UniProt P54750); test: PDE1 inhibition assay, PDE1A; details: for IC50: 15 nM tritium labelled cAMP; for inhibition at 10 µM: read-out: PDE1A, % inhibition (at 10 μM); for inhibition at 1 µM: read-out: PDE1A, % inhibition (at 1 μM)
Description: (§1) Reactions were initiated by addition of the cyclic nucleotide substrate, and reactions were allowed to proceed for 1 h at room temperature before being terminated through mixing with 20 μL (0.2 mg) yttrium silicate SPA beads (PerkinElmer).

[2] = biological target: PDE1B (Homo sapiens (Human), UniProt Q01064); test: PDE1 inhibition assay, PDE1B; details: 15 nM tritium labelled cAMP
Description: as §1, with “(PerkinElmer). The beads were allowed to settle for 1 h in the dark before the plates were counted in a Wallac 1450 Microbeta counter.” for “(PerkinElmer).”

[3] = biological target: PDE1C (Homo sapiens (Human), UniProt Q14123); test: PDE1 inhibition assay, PDE1C; details: for IC50: 15 nM tritium labelled cAMP; for inhibition at 1 µM: read-out: PDE1C, % inhibition (at 1 μM)
Description: as §1, with “(PerkinElmer). The beads were allowed to settle for 1 h in the dark before the plates were counted in a Wallac 1450 Microbeta counter.” for “(PerkinElmer).”

[4] = biological target: PDE9 (Homo sapiens (Human), UniProt O76083); test: PDE9 inhibition assay
Description: A PDE9 assay may for example, be performed as follows: The assay is performed in 60 μL samples containing a fixed amount of the relevant PDE enzyme (sufficient to convert 20-25% of the cyclic nucleotide substrate), a buffer (50 mM HEPES7.6; 10 mM MgCl2; 0.02% Tween20), 0.1 mg/ml BSA, 225 pCi of ^3H-labelled cyclic nucleotide substrate, tritium labeled cAMP to a final concentration of 5 nM and varying amounts of inhibitors. Reactions are initiated by addition of the cyclic nucleotide substrate, and reactions are allowed to proceed for one hr at room temperature before being terminated through mixing with 15 μL 8 mg/mL yttrium silicate SPA beads (Amersham). The beads are allowed to settle for one hr in the dark before the plates are counted in a Wallac 1450 Microbeta counter.
In the context of the present invention the assay was performed in 60 μL assay buffer (50 mM HEPES pH 7.6; 10 mM MgCl2; 0.02% Tween20) containing enough PDE9 to convert 20-25% of 10 nM ^3H-cAMP and varying amounts of inhibitors. Following a 1 hr incubation the reactions were terminated by addition of 15 μL 8 mg/mL yttrium silicate SPA beads (Amersham). The beads were allowed to settle for one hr in the dark before the plates were counted in a Wallac 1450 Microbeta counter.

Sequence of PDE1C (Q14123 whole entry): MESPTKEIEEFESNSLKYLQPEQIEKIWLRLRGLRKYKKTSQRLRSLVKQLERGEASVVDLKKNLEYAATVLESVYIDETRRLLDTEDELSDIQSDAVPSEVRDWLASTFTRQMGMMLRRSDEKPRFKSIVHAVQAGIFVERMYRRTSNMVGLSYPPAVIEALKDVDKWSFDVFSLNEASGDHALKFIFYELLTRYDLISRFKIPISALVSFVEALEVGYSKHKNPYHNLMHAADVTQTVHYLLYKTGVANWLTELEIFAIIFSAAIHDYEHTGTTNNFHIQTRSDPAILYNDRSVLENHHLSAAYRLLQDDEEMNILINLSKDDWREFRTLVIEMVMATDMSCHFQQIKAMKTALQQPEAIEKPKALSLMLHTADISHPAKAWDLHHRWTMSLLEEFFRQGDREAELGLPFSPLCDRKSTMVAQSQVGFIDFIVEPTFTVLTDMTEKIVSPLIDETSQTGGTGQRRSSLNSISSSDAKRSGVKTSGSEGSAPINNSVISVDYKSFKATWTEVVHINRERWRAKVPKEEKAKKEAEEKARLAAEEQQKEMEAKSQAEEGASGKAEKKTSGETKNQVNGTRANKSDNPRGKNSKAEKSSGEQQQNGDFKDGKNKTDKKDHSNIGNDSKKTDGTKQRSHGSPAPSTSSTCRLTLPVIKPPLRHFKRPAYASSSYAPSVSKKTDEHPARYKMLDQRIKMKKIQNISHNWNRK
Sequence of PDE1B (Q01064 whole entry): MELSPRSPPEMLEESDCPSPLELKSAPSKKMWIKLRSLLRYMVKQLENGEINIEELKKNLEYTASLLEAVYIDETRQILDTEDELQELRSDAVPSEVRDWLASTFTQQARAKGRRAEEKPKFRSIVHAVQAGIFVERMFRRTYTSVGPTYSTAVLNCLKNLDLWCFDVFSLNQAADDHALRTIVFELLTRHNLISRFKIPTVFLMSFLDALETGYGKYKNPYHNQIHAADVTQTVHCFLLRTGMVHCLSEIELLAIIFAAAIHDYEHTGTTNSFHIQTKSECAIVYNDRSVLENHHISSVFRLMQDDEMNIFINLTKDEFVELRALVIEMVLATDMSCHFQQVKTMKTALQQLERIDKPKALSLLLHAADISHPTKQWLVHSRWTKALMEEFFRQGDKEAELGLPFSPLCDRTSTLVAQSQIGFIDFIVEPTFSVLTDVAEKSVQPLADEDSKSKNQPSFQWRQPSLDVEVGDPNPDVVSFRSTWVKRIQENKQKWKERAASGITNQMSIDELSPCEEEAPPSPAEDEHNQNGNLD
Sequence of PDE1A (P54750 whole entry): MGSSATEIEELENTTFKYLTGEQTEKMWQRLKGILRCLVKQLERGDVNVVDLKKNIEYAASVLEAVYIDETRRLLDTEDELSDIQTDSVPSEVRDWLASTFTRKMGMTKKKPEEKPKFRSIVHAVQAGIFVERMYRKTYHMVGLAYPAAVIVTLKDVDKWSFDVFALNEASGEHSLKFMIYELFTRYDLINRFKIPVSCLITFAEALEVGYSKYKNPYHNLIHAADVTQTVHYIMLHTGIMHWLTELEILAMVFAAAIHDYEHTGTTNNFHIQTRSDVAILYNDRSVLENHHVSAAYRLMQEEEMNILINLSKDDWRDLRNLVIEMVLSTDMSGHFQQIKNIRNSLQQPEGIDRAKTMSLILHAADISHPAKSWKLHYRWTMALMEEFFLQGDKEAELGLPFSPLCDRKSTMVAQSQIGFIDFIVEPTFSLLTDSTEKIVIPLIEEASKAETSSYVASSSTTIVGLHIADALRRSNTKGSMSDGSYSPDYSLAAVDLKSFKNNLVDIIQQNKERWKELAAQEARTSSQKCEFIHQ
Sequence of PDE9 (O76083 whole entry): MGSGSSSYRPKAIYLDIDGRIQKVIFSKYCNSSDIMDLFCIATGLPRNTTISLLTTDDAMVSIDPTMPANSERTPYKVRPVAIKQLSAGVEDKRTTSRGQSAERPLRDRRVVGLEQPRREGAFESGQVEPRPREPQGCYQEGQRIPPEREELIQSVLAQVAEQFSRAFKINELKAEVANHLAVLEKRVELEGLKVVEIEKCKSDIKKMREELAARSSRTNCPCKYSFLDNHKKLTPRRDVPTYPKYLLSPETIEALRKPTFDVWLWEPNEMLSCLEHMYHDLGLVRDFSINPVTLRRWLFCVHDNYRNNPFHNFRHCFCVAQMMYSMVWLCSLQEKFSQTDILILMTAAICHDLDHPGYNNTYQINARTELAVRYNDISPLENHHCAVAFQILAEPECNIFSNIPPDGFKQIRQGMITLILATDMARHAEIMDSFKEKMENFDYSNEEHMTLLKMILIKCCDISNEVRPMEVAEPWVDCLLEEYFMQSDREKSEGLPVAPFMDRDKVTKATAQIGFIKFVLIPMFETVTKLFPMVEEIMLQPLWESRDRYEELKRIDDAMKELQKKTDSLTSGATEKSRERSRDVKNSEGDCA

IC50 [1] [nM]	IC50 [2] [nM]	IC50 [3] [nM]	inhibition at 10 µM [4] [%]	% inhibition of PDE9 at 10 microM [4] [%]	inhibition at 10 µM [1] [%]	inhibition at 1 µM [1] [%]	inhibition at 1 µM [3] [%]	SMILES
30	21	16	12	–	–	–	–	O=c1c2cnc(C3CCOCC3)n2ccn1CC1CCCCCC1 [Example 12, 7-(Cycloheptylmethyl)-3-(tetrahydro-2H-pyran-4-yl)imidazo[1,5-a]pyrazin-8(7H)-one]
35	11	46	–	−2	–	–	–	Cc1cn2c(C3CCOCC3)ncc2c(=O)n1C[C@H]1CC[C@H](C)CC1 [66, trans]
18	15	51	22	–	–	–	–	Cc1cn2c(C3CCOCC3)ncc2c(=O)n1Cc1ccc(Cl)cc1 [Example 14, 7-(4-Chlorobenzyl)-6-methyl-3-(tetrahydro-2H-pyran-4-yl)imidazo[1,5-a]pyrazin-8(7H)-one]
62	53	12	23	–	–	–	–	CCc1cn2c(C3CCOCC3)ncc2c(=O)n1Cc1cccc(F)c1 [Example 54, 6-ethyl-7-(3-fluorobenzyl)-3-(tetrahydro-2H-pyran-4-yl)imidazo[1,5-a]pyrazin-8(7H)-one]
40	5	16	18	–	–	–	–	CCc1cn2c(C3CCOCC3)ncc2c(=O)n1Cc1ccc(OC)cc1 [Example 44, 6-ethyl-7-(4-methoxybenzyl)-3-(tetrahydro-2H-pyran-4-yl)imidazo[1,5-a]pyrazin-8(7H)-one]
331	359	93	0	–	–	–	–	Cc1cn2c(C3CC3(F)F)ncc2c(=O)n1Cc1cccc(F)c1 (stereo not drawn) [Example 34, 3-(2,2-difluorocyclopropyl)-7-(3-fluorobenzyl)-6-methylimidazo[1,5-a]pyrazin-8(7H)-one]
–	128	303	1	–	65	–	–	COc1ccc(Cn2c(C)cn3c(C4COC(C)C4)ncc3c2=O)cc1 (stereo not drawn) [Example 89, 7-(4-methoxybenzyl)-6-methyl-3-(5-methyltetrahydrofuran-3-yl)imidazo[1,5-a]pyrazin-8(7H)-one]
242	195	30	-14	–	–	–	–	Cc1ccccc1Cn1c(C)cn2c(C3CCOCC3)ncc2c1=O [Example 21, 6-Methyl-7-(2-methylbenzyl)-3-(tetrahydro-2H-pyran-4-yl)imidazo[1,5-a]pyrazin-8(7H)-one]
323	127	1860	5	–	–	–	–	CO[C@H]1CC[C@H](Cn2c(C)cn3c(C4CCOCC4)ncc3c2=O)CC1 [Example 68, 7-(((trans)-4-methoxycyclohexyl)methyl)-6-methyl-3-(tetrahydro-2H-pyran-4-yl)imidazo[1,5-a]pyrazin-8(7H)-one]
–	1310	496	18	–	72	–	–	Cc1cn2c(C3CCOCC3)ncc2c(=O)n1Cc1cscn1 [Example 80, 6-methyl-3-(tetrahydro-2H-pyran-4-yl)-7-(thiazol-4-ylmethyl)imidazo[1,5-a]pyrazin-8(7H)-one]
50	16	38	12	–	–	–	–	Cc1cn2c(C3CCOCC3)ncc2c(=O)n1Cc1ccc2c(c1)OCO2 [Example 50, 7-(benzo[d][1,3]dioxol-5-ylmethyl)-6-methyl-3-(tetrahydro-2H-pyran-4-yl)imidazo[1,5-a]pyrazin-8(7H)-one]
29	17	28	-11	–	–	–	–	COc1ccc(Cn2c(C)cn3c([C@@]4(C)C[C@@H]5CC[C@H]4O5)ncc3c2=O)cc1 [Example 70, 7-(4-methoxybenzyl)-6-methyl-3-((1R,2R,4S)-2-methyl-7-oxabicyclo[2.2.1]heptan-2-yl)imidazo[1,5-a]pyrazin-8(7H)-one]
90	12	43	9	–	–	–	–	COc1ccc(Cn2c(C)cn3c([C@H](C)c4ccccc4)ncc3c2=O)cc1 [Example 72, (R)-7-(4-methoxybenzyl)-6-methyl-3-(1-phenylethyl)imidazo[1,5-a]pyrazin-8(7H)-one]
10	6	5	11	–	–	–	–	Cc1cn2c(C3CCOCC3)ncc2c(=O)n1CC1CCCCCC1 [Example 65, 7-(cycloheptylmethyl)-6-methyl-3-(tetrahydro-2H-pyran-4-yl)imidazo[1,5-a]pyrazin-8(7H)-one]
1080	558	93	7	–	–	–	–	Cc1cn2c(C3CCOCC3)ncc2c(=O)n1CCC(C)C [Example 62, 7-isopentyl-6-methyl-3-(tetrahydro-2H-pyran-4-yl)imidazo[1,5-a]pyrazin-8(7H)-one]
627	103	337	-5	–	–	–	–	COc1ccc(Cn2c(C)cn3c(C4CC(C)OC(C)C4)ncc3c2=O)cc1 (stereo not drawn) [Example 84, 3-(2,6-dimethyltetrahydro-2H-pyran-4-yl)-7-(4-methoxybenzyl)-6-methylimidazo[1,5-a]pyrazin-8(7H)-one]
401	35	84	-41	–	–	–	–	Cc1cn2c(C3CCOCC3)ncc2c(=O)n1Cc1ccc(O)cc1 [Example 53, 7-(4-hydroxybenzyl)-6-methyl-3-(tetrahydro-2H-pyran-4-yl)imidazo[1,5-a]pyrazin-8(7H)-one]
87	50	62	7	–	–	–	–	O=c1c2cnc(C3CC3)n2ccn1CC1CCCCCC1 [Example 13, 7-(Cycloheptylmethyl)-3-cyclopropylimidazo[1,5-a]pyrazin-8(7H)-one]
484	308	548	-32	–	–	–	–	COc1ccc(Cn2c(C)cn3c(C4CCNC(=O)CC4)ncc3c2=O)cc1 (stereo not drawn) [Example 88, 7-(4-methoxybenzyl)-6-methyl-3-(7-oxoazepan-4-yl)imidazo[1,5-a]pyrazin-8(7H)-one]
–	155	–	15	–	–	50	55	Cc1cn2c(C3CCOCC3)ncc2c(=O)n1Cc1ccc(OCC2CC2)cc1 [Example 42, 7-(4-(cyclopropylmethoxy)benzyl)-6-methyl-3-(tetrahydro-2H-pyran-4-yl)imidazo[1,5-a]pyrazin-8(7H)-one]
241	134	27	–	9	–	–	–	Cc1cn2c(N3CCC4OCCC43)ncc2c(=O)n1Cc1cccc(F)c1 (single isomer, unassigned; isomer 1) [99, isomer 1]
11	25	7	-5	–	–	–	–	Cc1cn2c(C3CCOCC3)ncc2c(=O)n1CC1CCCCC1 [Example 4, 7-(Cyclohexylmethyl)-6-methyl-3-(tetrahydro-2H-pyran-4-yl)imidazo[1,5-a]pyrazin-8(7H)-one]
–	388	–	10	–	–	0	10	CC(=O)Nc1ccc(Cn2c(C)cn3c(C4CCOCC4)ncc3c2=O)cc1 [Example 47, N-(4-((6-methyl-8-oxo-3-(tetrahydro-2H-pyran-4-yl)imidazo[1,5-a]pyrazin-7(8H)-yl)methyl)phenyl)acetamide]
42	36	9	7	–	–	–	–	Cc1cn2c(C3CCOCC3)ncc2c(=O)n1Cc1ccccc1F [Example 17, 7-(2-Fluorobenzyl)-6-methyl-3-(tetrahydro-2H-pyran-4-yl)imidazo[1,5-a]pyrazin-8(7H)-one]
45	26	84	-5	–	–	–	–	COc1ccc(Cn2c(C)cn3c(C4CCOCC4)ncc3c2=O)cn1 [Example 57, 7-((6-methoxypyridin-3-yl)methyl)-6-methyl-3-(tetrahydro-2H-pyran-4-yl)imidazo[1,5-a]pyrazin-8(7H)-one]
347	138	31	–	5	–	–	–	Cc1cn2c([C@H]3CCOC3)ncc2c(=O)n1Cc1cccc(F)c1 (single isomer, unassigned; isomer 2) [31, isomer 2]
624	528	103	11	–	–	–	–	Cc1cn2c(C3CCOCC3)ncc2c(=O)n1Cc1ccccc1C#N [Example 64, 2-((6-methyl-8-oxo-3-(tetrahydro-2H-pyran-4-yl)imidazo[1,5-a]pyrazin-7(8H)-yl)methyl)benzonitrile]
